Results from patent publication US9738656B2, “Pyranodipyridine compound” (Eisai R&D Management Co., Ltd., priority 2015, dated 2017).
Where two headings read alike, the source gives them in different places.

Legend:
[1] = tested on: AMPA receptor; experiment: AMPA-induced intraneuronal calcium entry-suppressing action (primary culture of embryonic rat cerebral cortex neurons, Fura 2-AM); assay type: cell-based; conditions: AMPA stimulation, intracellular calcium increase, read-out: IC50 for AMPA inhibition
From the text: The present inventors conducted the following tests, in order to confirm the effects of the compounds of the present invention. With regard to the AMPA receptor inhibitory action of the compounds, AMPA-induced intraneuronal calcium entry-suppressing action was examined using a primary culture system of embryonic rat cerebral cortex neurons. With regard to the anticonvulsant action of the compounds, 6 Hz (44 mA) stimulation-induced convulsions known as a treatment-resistant convulsion model were used. AMPA inhibitor-induced central nervous system depressant action such as loss of coordination was evaluated using a rotarod performance test.
AMPA-Induced Intraneuronal Calcium Entry-Suppressing Action
<Culture conditions> Whole fetuses were removed from the uteri of Wistar rats at embryonic day 18 (Charles River Japan) anesthetized with isoflurane. Whole brains were removed from the whole fetuses, and the cerebral cortex was separated in Leibovitz's L-15 medium or Hanks balanced salt solution containing 20% fetal bovine serum. The resulting material was treated with trypsin/DNase solution at 37° C. for 45 to 60 minutes. After the serum was added to stop the trypsin reaction, the resulting material was centrifuged at 1200 to 1500 rpm for 3 to 5 minutes. After the supernatant was removed, Neurobasal medium (containing 2% B-27 supplement and the like; hereinafter “Neurobasal medium”) was added, and the cells were uniformly dispersed by gently pipetting. The cell suspension was slightly stirred, and then filtered through a nylon mesh filter. Viable cells were counted using a hemocytometer, and diluted with Neurobasal medium to 8 to 10×10^5 cells/mL. The cells were seeded into 96 well plates at 100 μL per well and cultured in a CO2 incubator (5% CO2, 37° C.). The medium was replaced after 24 hours, and neurons cultured for 7 to 21 days were used.
On the day of the assay, the medium was removed and replaced with a calcium measurement solution containing 5 to 10 μmol/L of Fura 2-AM (140 mmol/L sodium chloride, 5 mmol/L potassium chloride, 2 mmol/L magnesium chloride, 3 mmol/L calcium chloride, 24 mmol/L D(+)-glucose, 10 mmol/L HEPES, 1 μmol/L MK-801, pH 7.4), and the cells were treated in a CO2 incubator (5% CO2, 37° C.) for 1 to 2 hours. The calcium measurement solution containing the Fura-2 AM solution was subsequently removed, and the neurons in each well were washed twice with the calcium measurement solution for each well, and then 50 μL of the calcium measurement solution was added to each well. Subsequently, 50 μL of a test compound or medium prepared at a concentration 3-fold higher than the final concentration was added, and the cells were pre-treated for about 15 minutes. The plates were subsequently placed on the Fluorescence Drug Screening System 6000 (Hamamatsu Photonics K.K.). The cells were stimulated by adding to each well 50 μL of an AMPA stimulating solution prepared to 3.3 μmol/L with the calcium measurement solution. Changes in calcium concentration were measured as the changes in fluorescence intensity at excitation wavelengths of 340 nm and 380 nm (measurement wavelength: 540 nm). The rate of change of the intracellular calcium concentration was calculated according to the following equation: Rate of increase of the intracellular calcium concentration (% control)=(Tpost−Tpre)/(Cpost−Cpre)×100
wherein Tpost: the proportion of fluorescence of sample wells after stimulation; Tpro: the proportion of fluorescence of sample wells before stimulation; Cpost: the proportion of fluorescence of control wells after stimulation; and Cpre: the proportion of fluorescence of control wells before stimulation.
The IC50 value of the test compound for AMPA inhibition was determined from the rates of increase of the intracellular calcium concentration at various concentrations.

[2] = tested on: male ddY mice; experiment: Rotarod performance test-1; assay type: in vivo; conditions: oral, 25 minutes after administration, dose at which time of fall is reduced to 50% of medium control
Description: (§1) With regard to the AMPA receptor inhibitory action of the compounds, AMPA-induced intraneuronal calcium entry-suppressing action was examined using a primary culture system of embryonic rat cerebral cortex neurons. […] AMPA inhibitor-induced central nervous system depressant action such as loss of coordination was evaluated using a rotarod performance test.
Rotarod Performance Test-1
(§2) A rotarod (MK-660C from Muromachi Kikai Co., Ltd.) was used for the measurement. The rod (bar) was controlled to be gradually accelerated from its stationary state to a speed of 40 rotations/minute after 180 seconds. As the animals, 5 or 6-week-old male ddY mice (Japan SLC, Inc.) were used. On the day on which the test was performed, the mice were trained under the above-described measurement conditions, and mice that were able to ride on the rod for 1 minute or longer with good reproducibility were selected and subjected to the test.
Each of the compounds was dissolved in a medium (a solution prepared by adding DMSO to a 0.5% methylcellulose solution to a final concentration of 10%. As required, 0.5 to 5% of 1 mol/L hydrochloric acid and 5% Cremophor™ were added), and then orally administered to the mice in optimum four doses between 0.5 to 10 mg/kg. As the control, only the medium was orally administered. After a lapse of 25 minutes from the oral administration of each compound, the mice were subjected to the rotarod performance test. Five to twenty-five mice were used for each compound group.

[3] = tested on: male ddY mice; experiment: Murine 6 Hz convulsion models (6 Hz, 44 mA corneal stimulation); assay type: in vivo; conditions: for ED50: Mus musculus, 25 min; for Therapeutic Index: TD50/ED50 (rotarod test-1 / 6 Hz convulsion model)
Description: as §1
Immediately after the rotarod performance test-1 was completed, the cornea was stimulated by passing an electrical current (6 Hz, 44 mA, 0.2-millisecond pulse, for 3 seconds) from a copper electrode moistened with physiological saline, and the presence or absence of the development of a seizure was observed. The seizure was determined by the development of akinesia, jaw and forelimb clonus, whisker tremors, and Straub tail.
Further, for the purpose of evaluating the safety margin of each of the compounds of the present invention, the therapeutic index (TD50/ED50) was calculated by comparing the seizure inhibitory action (ED50) in the 6 Hz convulsion models and the neurotoxic action (TD50) in the rotarod performance test-1.

[4] = tested on: male ddY mice; experiment: Rotarod performance test-2; assay type: in vivo; conditions: for Time of Fall: mice, oral at the ED50 dose of the 6 Hz model, 25 minutes after administration; for Ratio Relative to the Control Compound: time of fall relative to control compound
Description: Rotarod Performance Test-2
as §2
As the control, only the medium was orally administered. After a lapse of 25 minutes from the oral administration of each compound, the mice were subjected to the rotarod performance test. Five or six mice were used for each compound group. For each compound, the time until the mice fell from the rotarod was measured.

[5] = mice, 6 Hz 44 mA stimulation-induced seizure, oral, after rotarod test-1 (25 minutes after administration), read-out: ED50

SMILES	IC50 [1]	TD50 [2]	ED50 [3, 5]	Therapeutic Index ([3]; mice)	Time of Fall ([4]; Table 4)	Ratio Relative to the Control Compound ([4]; Table 4)	ED50 ([3]; po)	Time of Fall ([4]; Table 3)	Ratio Relative to the Control Compound ([4]; Table 3)
Cc1c(F)cccc1-c1cc2c(n(-c3cccnc3)c1=O)COc1cccnc1-2 [Example 22, 9-(3-fluoro-2-methylphenyl)-7-(pyridin-3-yl)-6H-pyrano[3,2-b:5,4-b′]dipyridin-8(7H)-one]	53.3 nM	6.19 mg/kg, p.o.	3.23 mg/kg	1.91	102.8 s	7.2			
N#Cc1c(F)cccc1-c1cc2c(n(-c3cncnc3)c1=O)COc1cccnc1-2 [Example 18, 2-fluoro-6-(8-oxo-7-(pyrimidin-5-yl)-7,8-dihydro-6H-pyrano[3,2-b:5,4-b′]dipyridin-9-yl)benzonitrile]	29 nM	4.03 mg/kg, p.o.		2.02	102.2 s	7.1	2 mg/kg		
Cc1ccc(-n2c3c(cc(-c4cccc(F)c4Cl)c2=O)-c2ncccc2OC3)cn1 [Example 4, 9-(2-chloro-3-fluorophenyl)-7-(6-methylpyridin-3-yl)-6H-pyrano[3,2-b:5,4-b′]dipyridin-8(7H)-one]	28.3 nM	3.90 mg/kg, p.o.		1.67			2.33 mg/kg	73.2 s	6.0
N#Cc1ncccc1-c1cc2c(n(-c3ccccc3)c1=O)COc1cc(F)cnc1-2 [Example 13, 3-(3-fluoro-8-oxo-7-phenyl-7,8-dihydro-6H-pyrano[3,2-b:5,4-b′]dipyridin-9-yl)picolinonitrile]	67.5 nM	3.89 mg/kg, p.o.		1.73			2.25 mg/kg	84.8 s	7.0
N#Cc1ccccc1-c1cc2c(n(-c3ccc(F)cc3)c1=O)COc1cccnc1-2 [Example 10, 2-(7-(4-fluorophenyl)-8-oxo-7,8-dihydro-6H-pyrano[3,2-b:5,4-b′]dipyridin-9-yl)benzonitrile]	18.8 nM	3.37 mg/kg, p.o.		1.62			2.08 mg/kg	84.2 s	6.9
COc1cncc(-n2c3c(cc(-c4cccc(F)c4C#N)c2=O)-c2ncccc2OC3)c1 [Example 2, 2-fluoro-6-(7-(5-methoxypyridin-3-yl)-8-oxo-7,8-dihydro-6H-pyrano[3,2-b:5,4-b′]dipyridin-9-yl)benzonitrile]	16 nM	4.50 mg/kg, p.o.		2.36			1.91 mg/kg	148.0 s	12.1
O=c1c(-c2c(F)cccc2F)cc2c(n1-c1cccnc1)COc1cccnc1-2 [Referential Example 1, 9-(2,6-difluorophenyl)-7-(pyridin-3-yl)-6H-pyrano[3,2-b:5,4-b′]dipyridin-8(7H)-one]	44.1 nM	5.16 mg/kg, p.o.	1.41 mg/kg	3.66				110.7 s	9.1
N#Cc1ccccc1-n1nc2c(c(-c3cccnc3)c1=O)COc1ccccc1-2 [Control Compound, 2-(3-oxo-4-(pyridin-3-yl)-3,5-dihydro-2H-chromeno[4,3-c]pyridazin-2-yl)benzonitrile, reference compound]	20 nM	2.73 mg/kg, p.o.		0.69	14.3 s	1.0	3.96 mg/kg	12.2 s	1.0
O=c1c(-c2ccccc2Cl)cc2c(n1-c1cccnc1)COc1cccnc1-2 [Example 1, 9-(2-chlorophenyl)-7-(pyridin-3-yl)-6H-pyrano[3,2-b:5,4-b′]dipyridin-8(7H)-one]	33.5 nM	3.09 mg/kg, p.o.		1.49			2.08 mg/kg	56.3 s	4.6
N#Cc1ncccc1-c1cc2c(n(-c3ccsc3)c1=O)COc1cccnc1-2 [Example 7, 3-(8-oxo-7-(thiophen-3-yl)-7,8-dihydro-6H-pyrano[3,2-b:5,4-b′]dipyridin-9-yl)picolinonitrile]	15.5 nM	1.70 mg/kg, p.o.		1.75			0.97 mg/kg	71.7 s	5.9
N#Cc1c(F)cccc1-c1cc2c(n(-c3cncc(Cl)c3)c1=O)COc1cccnc1-2 [Example 20, 2-(7-(5-chloropyridin-3-yl)-8-oxo-7,8-dihydro-6H-pyrano[3,2-b:5,4-b′]dipyridin-9-yl)-6-fluorobenzonitrile]	8.26 nM	4.74 mg/kg, p.o.		1.91	71.3 s	5.0	2.47 mg/kg		
